In the NIST ThermoML archive (doi:10.1016/j.jct.2006.04.007):

Assay: mn = molality of the nth substance listed, in mol/kg
Settings: 350 kPa, Liquid; for apparent molar heat capacity: Extra sensitive DSC

CNC(C)=O [N-methylacetamide] + O
Settings | apparent molar heat capacity [J/K/mol] | mass density [kg/m3]
278.15 K, m1 = 0.015 | 221 | 999.98
278.15 K, m1 = 0.04 | 230 | 1000.02
278.15 K, m1 = 0.07 | 243.9 | 1000.14
278.15 K, m1 = 0.1001 | 239.7 | 1000.14
278.15 K, m1 = 0.2002 | 240.2 | 1000.14
278.15 K, m1 = 0.4 | 238.2 | 1000.26
278.15 K, m1 = 0.599 | 251.1 | 1000.35
278.15 K, m1 = 0.8028 | 237.5 | 1000.66
278.15 K, m1 = 1 | 236.3 | 1000.98
283.15 K, m1 = 0.015 | 217 | 999.8
283.15 K, m1 = 0.04 | 225 | 999.78
283.15 K, m1 = 0.07 | 246 | 999.85
283.15 K, m1 = 0.1001 | 242.5 | 999.83
283.15 K, m1 = 0.2002 | 243.9 | 999.82
283.15 K, m1 = 0.4 | 242.3 | 999.89
283.15 K, m1 = 0.599 | 254.9 | 1000
283.15 K, m1 = 0.8028 | 242.4 | 1000.14
283.15 K, m1 = 1 | 241.4 | 1000.43
288.15 K, m1 = 0.015 | 213 | 999.2
288.15 K, m1 = 0.04 | 221 | 999.19
288.15 K, m1 = 0.07 | 247 | 999.23
288.15 K, m1 = 0.1001 | 247.1 | 999.22
288.15 K, m1 = 0.2002 | 247.9 | 999.16
288.15 K, m1 = 0.4 | 246 | 999.24
288.15 K, m1 = 0.599 | 257.6 | 999.28
288.15 K, m1 = 0.8028 | 245.8 | 999.39
288.15 K, m1 = 1 | 244.9 | 999.54
293.15 K, m1 = 0.015 | 220 | –
293.15 K, m1 = 0.04 | 230 | –
293.15 K, m1 = 0.07 | 250 | –
293.15 K, m1 = 0.1001 | 251.4 | –
293.15 K, m1 = 0.2002 | 251.6 | –
293.15 K, m1 = 0.4 | 249.2 | –
293.15 K, m1 = 0.599 | 259.8 | –
293.15 K, m1 = 0.8028 | 248.7 | –
293.15 K, m1 = 1 | 248 | –
298.15 K, m1 = 0.015 | 228 | –
298.15 K, m1 = 0.04 | 238 | –
298.15 K, m1 = 0.07 | 252.1 | –
298.15 K, m1 = 0.1001 | 254.8 | –
298.15 K, m1 = 0.2002 | 254.7 | –
298.15 K, m1 = 0.4 | 251.85 | –
298.15 K, m1 = 0.599 | 261.9 | –
298.15 K, m1 = 0.8028 | 251.4 | –
298.15 K, m1 = 1 | 250.8 | –
303.15 K, m1 = 0.015 | 232 | –
303.15 K, m1 = 0.04 | 245 | –
303.15 K, m1 = 0.07 | 254.5 | –
303.15 K, m1 = 0.1001 | 259 | –
303.15 K, m1 = 0.2002 | 258.7 | –
303.15 K, m1 = 0.4 | 254.53 | –
303.15 K, m1 = 0.599 | 264 | –
303.15 K, m1 = 0.8028 | 254.1 | –
303.15 K, m1 = 1 | 253.5 | –
308.15 K, m1 = 0.015 | 236 | 994.14
308.15 K, m1 = 0.04 | 250.5 | 994.12
308.15 K, m1 = 0.07 | 257.5 | 994.1
308.15 K, m1 = 0.1001 | 262.8 | 994.07
308.15 K, m1 = 0.2002 | 261.8 | 993.96
308.15 K, m1 = 0.4 | 257.09 | 993.88
308.15 K, m1 = 0.599 | 266 | 993.8
308.15 K, m1 = 0.8028 | 256.5 | 993.77
308.15 K, m1 = 1 | 255.95 | 993.7
313.15 K, m1 = 0.015 | 243 | –
313.15 K, m1 = 0.04 | 256.4 | –
313.15 K, m1 = 0.07 | 259.8 | –
313.15 K, m1 = 0.1001 | 264.8 | –
313.15 K, m1 = 0.2002 | 263.9 | –
313.15 K, m1 = 0.4 | 259.34 | –
313.15 K, m1 = 0.599 | 267.9 | –
313.15 K, m1 = 0.8028 | 258.7 | –
313.15 K, m1 = 1 | 258.14 | –
318.15 K, m1 = 0.015 | 252 | 990.32
318.15 K, m1 = 0.04 | 264.9 | 990.29
318.15 K, m1 = 0.07 | 261.2 | 990.24
318.15 K, m1 = 0.1001 | 266 | 990.21
318.15 K, m1 = 0.2002 | 265.6 | 990.07
318.15 K, m1 = 0.4 | 261.43 | 989.92
318.15 K, m1 = 0.599 | 269.7 | 989.82
318.15 K, m1 = 0.8028 | 260.8 | 989.72
318.15 K, m1 = 1 | 260.24 | 989.61
323.15 K, m1 = 0.015 | 259 | –
323.15 K, m1 = 0.04 | 268.9 | –
323.15 K, m1 = 0.07 | 262.6 | –
323.15 K, m1 = 0.1001 | 267.4 | –
323.15 K, m1 = 0.2002 | 267.4 | –
323.15 K, m1 = 0.4 | 263.5 | –
323.15 K, m1 = 0.599 | 271.4 | –
323.15 K, m1 = 0.8028 | 262.77 | –
323.15 K, m1 = 1 | 262.22 | –
328.15 K, m1 = 0.015 | 260 | 985.77
328.15 K, m1 = 0.04 | 266.5 | 985.75
328.15 K, m1 = 0.07 | 265 | 985.75
328.15 K, m1 = 0.1001 | 269.3 | 985.75
328.15 K, m1 = 0.2002 | 269.2 | –
328.15 K, m1 = 0.4 | 265.52 | –
328.15 K, m1 = 0.599 | 273.1 | –
328.15 K, m1 = 0.8028 | 264.63 | –
328.15 K, m1 = 1 | 264.06 | –
